± gives the expanded uncertainty stated by the source.
Settings: 298 K; 101.33 kPa; Crystal; X-ray diffraction

In the case of `[O-2].[O-2].[O-2].[Pr+3].[Pr+3]` [praseodymium oxide (Pr2O3)], the mass density is reported as 7060.5 ± 7.2 kg/m3.

Reference: the NIST ThermoML archive (doi:10.1016/j.jct.2019.04.021)
